Experimental data: patent publication US6900217B2, “Substituted 6,5-hetero-bicyclic derivatives” (Pfizer Inc, priority 1996, dated 2005)

- melting point: 123 to 125 °C
Structure (SMILES): CCC(CC)Nc1c(Br)c(CBr)nc2c1nnn2-c1c(C)cc(C)cc1C [Example 6, [6-Bromo-5-bromomethyl-3-(2,4,6-trimethyl-phenyl)-3H-[1,2,3]triazolo[4,5-b]pyridin-7-yl]-(1-ethyl-propyl)-amine]
